Where two headings read alike, the source gives them in different places.
Target: T1, human Syk (GST-Syk) (Homo sapiens, UniProt P43405)
T1 construct: A cDNA fragment encoding human Syk openreading frame was cloned; made in house; host or cells: Sf21 insect cells (baculovirus, transfer vector pAcG2T)
Assay: Syk tyrosine kinase inhibitory assay
Type: biochemical
Description: [Syk Tyrosine Kinase Inhibitory Assay]
(1) Preparation of Syk Protein
A cDNA fragment encoding human Syk openreading frame was cloned from total RNA of human Burkitt's lymphoma B cell lines, Raji (American Type Culture Collection), with the use of RT-PCR method. The cDNA fragment was inserted into pAcG2T (Pharmingen, San Diego, Calif.) to construct a baculovirus transfer vector. Then the vector, together with the linearized baculovirus (BaculoGold™, Pharmingen), was used to transfect Sf21 cells (Invitrogen, San Diego, Calif.).
Generated recombinant baculovirus was cloned and amplified in Sf21 cells. Sf21 cells were infected with this amplified high titer virus to produce a chimeric protein of Syk kinase fused by glutathione-S-transferase (GST).
The resulting GST-Syk was purified with the use of glutathione column (Amersham Pharmacia Biotech AB, Uppsala, Sweden) according to the manufacturer's instruction.
(2) Synthesize of a Peptide
Next, a peptide fragment of 30 residues including two tyrosine residues, […], was synthesized by a peptide synthesizer. The N-terminal of the fragment was then biotinylated to obtain biotinylated activation loop peptide (AL).
(3) The Measurement of Syk Tyrosine Kinase Activity
All reagents were diluted with the Syk kinase assay buffer (50 mM Tris-HCl (pH 8.0), 10 mM MgCl2, 0.1 mM Na3VO4, 0.1% BSA, 1 mM DTT). First, a mixture (35 μl) including […] of GST-Syk and 0.5 μg of AL was put in each well in 96-well plates. Then 5 μl of a test compound in the presence of 2.5% dimethylsulfoxide (DMSO) was added to each well. To this mixture was added […] (10 μl) to initiate the kinase reaction. The final reaction mixture (50 μl) consists of 0.65 nM GST-Syk, 3 μM AL, 30 μM ATP, a test compound, 0.25% DMSO, and a Syk kinase assay buffer.
The mixture was incubated for 1 hr at room temperature, and the reaction was terminated by the addition of 120 μl of termination buffer (50 mM Tris-HCl (pH 8.0), 10 mMEDTA, 500 mM NaCl, 0.1% BSA). The mixture was transferred to streptavidin-coated plates and incubated for 30 min at room temperature to combine biotin-AL to the plates. After washing the plates with Tris-buffered saline (TBS) (50 mM Tris-HCl (pH 8.0), 138 mM NaCl, 2.7 mM KCl) containing 0.05% Tween-20 for 3 times, 100 μl of antibody solution consisting of 50 mM Tris-HCl (pH 8.0), 138 mM NaCl, 2.7 mM KCl, 1% BSA, 60 ng/ml anti-phosphotyrosine monoclonal antibody, 4G10 (Upstate Biotechnology), which is labeled with europium by Amersham Pharmacia's kit in advance, was added and incubated at room temperature for 60 min. After washing, 100 μl of enhancement solution (Amersham pharmacia Biotech) was added and then time-resolved fluorescence was measured by multi-label counter ARVO (Wallac Oy, Finland) at 340 nm for excitation and 615 nm for emission with 400 msec of delay and 400 msec of window.

[1] = Table 13, read-out: Activity grade
[2] = in vitro, compounds as yielded by solid phase synthesis, purity about 40 to 90%, read-out: Activity grade (IC50 class)
[3] = Table 17, IC50 classes, read-out: Activity grade
[4] = Table 11, read-out: Activity grade
[5] = Table 16, read-out: Activity grade

Compound	IC50 [2] [nM]	further results
COc1ccc(-c2cc3nccn3c(Sc3ccc(CCC(=O)O)cc3C(N)=O)n2)cc1OC [Example 14-35]		IC50 [1]: 500 to 2000 nM
COc1ccc(-c2cc3nccn3c(N(CCC#N)c3ccccc3)n2)cc1OC [Example 11-48]	< 500	
COc1ccc(-c2cc3nccn3c(N3CCC(C(N)=O)CC3)n2)cc1OC [Example 9-57]	< 500	
CCOC(=O)CCSc1nc(-c2ccc(OC)c(OC)c2)cc2nccn12 [Example 9-28]	< 500	
COc1ccc(-c2cc3nccn3c(Nc3ccc(N)cc3C(N)=O)n2)cc1OC [Example 33]		IC50 [3]: < 500 nM
CCNC(=O)Oc1ccc(-c2cc3nccn3c(SCC)n2)cc1OC [Example 3-9]	500 to 2000	
COc1ccc(-c2cc3nccn3c(N3CCN(CCO)CC3)n2)cc1OC [Example 9-51]	2000 to 10000	
CCSc1nc(-c2ccc3cc(OC)ccc3c2)cc2nccn12 [Example 1-6]	2000 to 10000	
COc1ccc(-c2cc3nccn3c(Nc3ccccc3)n2)cc1[N+](=O)[O-] [Example 12-32]		IC50 [4]: < 500 nM
COc1ccc(-c2cc3nccn3c(Nc3ccccc3)n2)cc1OC [Example 11-16]	< 500	
CCSc1nc(-c2ccc(OC)c(NCCCN(C)C)c2)cc2nccn12 [Example 17-6]		IC50 [5]: < 500 nM
COc1ccc(CSc2nc(-c3ccc(OC)c(OC)c3)cc3nccn23)cc1 [Example 14-1]		IC50 [1]: 500 to 2000 nM
COc1ccc(-c2cc3nccn3c(NC(=O)c3ccccc3)n2)cc1OC [Example 16]	< 500	IC50 [3]: 500 to 2000 nM
COc1ccc(-c2cc3nccn3c(Sc3ccc(/C=C/C(=O)O)c(C)c3)n2)cc1OC [Example 13-22]	< 500	
COC(=O)C1CCc2cc(Sc3nc(-c4ccc(OC)c(OC)c4)cc4nccn34)ccc2C1 (centres unmarked) [Example 13-23]	500 to 2000	
COc1ccc(-c2cc3nccn3c(Nc3ccccc3-c3nnn[nH]3)n2)cc1OC [Example 31]		IC50 [3]: < 500 nM
COc1ccc(-c2cc3nccn3c(Nc3ccc(S(N)(=O)=O)cc3)n2)cc1OC [Example 11-76]	< 500	
COc1ccc(-c2cc3nccn3c(SCCc3ccccc3)n2)cc1OC [Example 14-25]		IC50 [1]: 500 to 2000 nM
COc1ccc(-c2cc3nccn3c(Nc3cccc(C(C)=O)c3)n2)cc1OC [Example 11-59]	< 500	
COc1ccc(-c2cc3nccn3c(SCCC(C)C)n2)cc1OC [Example 14-28]		IC50 [1]: 500 to 2000 nM
COc1ccc(-c2cc3ncnn3c(Nc3cccc(N)n3)n2)cc1OC [Example 9-16]	< 500	
CCOc1ccc(-c2cc3nccn3c(Nc3ccccc3)n2)cc1OCC [Example 12-23]		IC50 [4]: < 500 nM
CCSc1nc(-c2ccc(OCCCN(C)CCO)c(OC)c2)cc2nccn12 [Example 5-3]	< 500	

Compound	IC50 [2] [nM]	further results
CCSc1nc(-c2cccnc2)cc2nccn12 [Example 8-2]	2000 to 10000	
COc1ccc(-c2cc3nccn3c(Nc3ccc(CC(N)C(=O)OC(C)C)cc3)n2)cc1OC (centres unmarked) [Example 29]		IC50 [3]: < 500 nM
COc1ccc(-c2cc3nccn3c(Nc3cccc(N)c3)n2)cc1OC [Example 11-124]	< 500	
COc1ccc(-c2cc3nccn3c(Cc3ccccc3)n2)cc1OC [Example 35]		IC50 [3]: 2000 to 10000 nM
COc1ccc(Nc2nc(-c3ccc(N(C)CCCN4CCOCC4)c(OC)c3)cc3nccn23)cc1 [Example 12-55]		IC50 [4]: < 500 nM
COc1cc(-c2cc3nccn3c(Sc3ccc(CCC(=O)O)cc3)n2)ccc1OCCN1CCOCC1 [Example 13-28]	< 500	
CCCCCCSc1nc(-c2ccc(OC)c(OC)c2)cc2nccn12 [Example 14-18]		Activity grade (Table 13): C-D
COc1ccc(-c2cc3nccn3c(Oc3cccc(C)c3)n2)cc1OC [Example 14-3]		IC50 [1]: 500 to 2000 nM
CCSc1cc(-c2cccc([N+](=O)[O-])c2)cc2nccn12 [Example 8-6]	500 to 2000	
COc1ccc(-c2cc3nccn3c(N(C)c3ccc(S(=O)(=O)O)cc3)n2)cc1OC [Example 11-6]	2000 to 10000	
COc1ccc(-c2cc3nccn3c(Nc3ccccc3C(=O)NN)n2)cc1OC [Example 11-13]	2000 to 10000	
CCOC(=O)CSc1nc(-c2ccc(OC)c(OC)c2)cc2nccn12 [Example 9-89]	500 to 2000	
CCSc1nc(-c2ccc(OC)c(NC)c2)cc2nccn12 [Example 17-2]		IC50 [5]: 500 to 2000 nM
CCSc1nc(-c2ccc(OC)c(OC)c2)cc2nc(C)cn12 [Example 1-8]	< 500	
c1ccc(Nc2nc(-c3ccc4c(c3)OCO4)cc3nccn23)cc1 [Example 12-22]		IC50 [4]: 500 to 2000 nM
COc1ccc(-c2cc3nccn3c(SCc3ccc(F)cc3)n2)cc1OC [Example 14-30]		IC50 [1]: 500 to 2000 nM
CCSc1nc(-c2ccc(OC)c(OCCN3CCOCC3)c2)cc2nccn12 [Example 5-12]	500 to 2000	
COc1ccc(Nc2nc(-c3ccc(OC)c(OC)c3)cc3ncnn23)cc1 [Example 11-15]	< 500	
COc1ccc(-c2cc3ncnn3c(Nc3ccc(CCC(=O)O)cc3C(N)=O)n2)cc1OC [Example 11-101]	< 500	
CCSc1nc(-c2ccc(OC)c(OCCCN3CCSCC3)c2)cc2nccn12 [Example 5-10]	500 to 2000	
COc1ccc(-c2cc3nccn3c(Nc3ccncc3)n2)cc1OC [Example 12-8]		IC50 [4]: < 500 nM
CCSc1nc(-c2cccc(N)c2)cc2nccn12 [Example 8, 3-(5-Ethylsulfanyl-imidazo[1,2-c]pyrimidin-7-yl)-phenylamine]	< 500	
CCN(CCO)c1ccc(Nc2nc(-c3ccc(OC)c(OC)c3)cc3nccn23)cc1 [Example 11-68]	< 500	

Compound	IC50 [2] [nM]	further results
COc1ccc(N2CCN(c3nc(-c4ccc(OC)c(OC)c4)cc4nccn34)CC2)cc1 [Example 9-40]	2000 to 10000	
COc1ccc(-c2cc3nccn3c(SCC(F)(F)F)n2)cc1OC [Example 14-16]		IC50 [1]: < 500 nM
CCSc1nc(-c2ccc(OCCN3CC(C)OC(C)C3)c(OC)c2)cc2nccn12 (centres unmarked) [Example 5-14]	< 500	
CCSc1nc(-c2ccc(NCc3ccccc3)c(OC)c2)cc2nccn12 [Example 17-9]		IC50 [5]: 2000 to 10000 nM
CCSc1nc(-c2ccc(OC)c(OC)c2)cc2nc(C(N)=O)cn12 [Example 28]		IC50 [3]: 500 to 2000 nM
CCCCNS(=O)(=O)c1cccc(Nc2nc(-c3ccc(OC)c(OC)c3)cc3nccn23)c1 [Example 11-73]	< 500	
COc1cc(-c2cc3nccn3c(Nc3ccccc3)n2)ccc1OC(C)=O [Example 12-33]		IC50 [4]: < 500 nM
COc1ccc(-c2cc3nccn3c(Nc3ccc(OC(F)(F)F)cc3)n2)cc1OC [Example 11-95]	< 500	
COc1ccc(-c2cc3nccn3c(Nc3ccc(CCC(=O)O)cc3C(N)=O)n2)cc1OC [Example 11-104]	< 500	
COc1ccc(-c2cc3nccn3c(N3CCN(c4ccc(C)cc4)CC3)n2)cc1OC [Example 9-44]	2000 to 10000	
COc1ccc(-c2cc3nccn3c(N3CCC(O)(c4ccc(Cl)cc4)CC3)n2)cc1OC [Example 9-64]	2000 to 10000	
CCSc1nc(-c2ccc(OS(C)(=O)=O)c(OC)c2)cc2nccn12 [Example 3-10]	500 to 2000	
COc1ccc(-c2cc3nccn3c(N(C)CCC(O)c3ccccc3)n2)cc1OC (centres unmarked) [Example 9-53]	< 500	
CCC(C)CSc1nc(-c2ccc(OC)c(OC)c2)cc2nccn12 (centres unmarked) [Example 14-23]		IC50 [1]: 500 to 2000 nM
COc1cc(-c2cc3nccn3c(Nc3ccc(C)cc3)n2)ccc1N1CCOCC1 [Example 12-47]		IC50 [4]: < 500 nM
COc1ccc(-c2cc3nccn3c(Nc3ccc(S(=O)(=O)N4CCOCC4)cc3)n2)cc1OC [Example 11-116]	< 500	
COc1ccc(-c2cc3nccn3c(N(C)c3ccc([N+](=O)[O-])cc3)n2)cc1OC [Example 11-43]	< 500	
COc1ccc(-c2cc3nccn3c(SC(C)C)n2)cc1OC [Example 9-9]	< 500	
CCSc1nc(-c2ccc(OC)c(NCCN(C)C)c2)cc2nccn12 [Example 17-8]		IC50 [5]: 500 to 2000 nM
C=CCSc1nc(-c2ccc(OC)c(OC)c2)cc2nccn12 [Example 9-8]	< 500	
COc1ccc(-c2cc3ncnn3c(Nc3ccccc3)n2)cc1OC [Example 9.79]	< 500	
